Here are results for 25 molecules from patent publication US20150284375A1 (AJINOMOTO CO., INC., priority 2012, published 2015).

This assay addresses T1, human TRPA1 (Homo sapiens, UniProt O75762).
T1 construct: expressed in transfected cells; host or cells: Human embryonic kidney-derived 293T cells, transiently transfected with the pcDNA3.1/zeo(+) human TRPA1 plasmid
Nature of the assay: Measurement of TRPA1 antagonist activity (intracellular calcium increase, FLIPR, allylisothiocyanate stimulation). The assay is classed as cell-based. To be noted: read-out: antagonism hTRPA1. The text has this:
Measurement of TRPA1 Antagonist Activity
Human TRPA1 Expression Plasmid
As cDNA encoding human TRPA1 (GenBank accession No. […]), a commercially available product was purchased (manufactured by Kazusa DNA Research Institute, clone No.: pFN21AB7348, item No.: FHC07217). Using this as a template, full-length human TRPA1 gene was amplified using the primer sequences shown below, by reaction using DNA polymerase (manufactured by Stratagene, trade name: PfuUltra High-Fidelity DNA Polymerase).
A recognition site (underlined) of restriction enzyme HindIII was added to the 5′ side, and XbaI site (underlined) was added to the 3′ side, and GTT of the template sequence was changed to termination codon TAG (bold). The obtained double stranded DNA was enzyme-digested with HindIII and XbaI, and introduced into a multicloning site of expression plasmid pcDNA3.1/zeo(+) (manufactured by Invitrogen) to give a human TRPA1 expression plasmid.
Human embryonic kidney-derived 293T cells were cultured in Dulbecco's Modified Eagle Medium containing 10% fetal bovine serum, 10 unit penicillin, and 10 μg streptomycin, plated on a petri dish having a diameter of 10 cm at 3×10^6 cells, and cultured for 24 hr. A medium containing a reduced amount of serum (manufactured by Invitrogen, trade name: OPTI-MEM, 600 μL), a gene insertion reagent (manufactured by Mirus Bio, trade name: Mirus TransIT-293, 18 μL), and human TRPA1 expression plasmid (6 μg) were mixed, the total amount of the mixture was added to the cells on the petri dish to allow for gene transfer. The cells were recovered about 8 hr later, plated on a poly-D-lysine coated 384 well black/clear bottom plate at 7,500-12,000 cells/well, and cultured overnight.
Measurement of Intracellular Calcium Increase
The 384 well plate was recovered, and the medium was removed. A calcium-bonded fluorescent indicator (manufactured by Molecular Device, trade name: Calcium4 Assay Kit, 40 μL) dissolved in assay buffer (1×HBSS, 20 mM HEPES, pH 7.2) was added, and the cells were stained in a 37° C. incubator for 1 hr. The cells were taken out at room temperature and left standing for 15 min or more. A test substance (10 μL) was added by a 384 well type dispenser, and the mixture was incubated at room temperature for 10 min. Then, allylisothiocyanate (12.5 μL) at a final concentration of 20 μM was added by a fluorescence imaging plate reader (manufactured by Molecular Device, FLIPR), and changes in the relative fluorescence intensity were measured for 5 min.
Test Substance Preparation
The test substance was dissolved in dimethyl sulfoxide and serially diluted with an assay buffer containing 0.1% bovine serum albumin (1×HBSS, 20 mM HEPES, pH 7.2) to a 5-fold concentration of the evaluation concentration. Allylisothiocyanate, which is a known TRPA1 activator, was dissolved in dimethyl sulfoxide to 100 mM, and further diluted 5-fold (100 μM) of the final concentration, like the test substance.
Calculation of Antagonist Activity
Under the test substance-free conditions, the maximum variation range of the fluorescence intensity before and after allylisothiocyanate stimulation was defined to be 100% activity rate, and the variation range before and after buffer stimulation was defined as 0% activity rate. The activity rate on addition of the test substance was determined, and the numerical value obtained by subtracting the activity rate from 100 was defined to be an inhibitory rate. 1050, which is the concentration of the test substance necessary for reaching the 50% inhibitory rate, was calculated from the sigmoid approximate curve by a spreadsheet software Excel-Fit.
A general note: Calcium flux is commonly read through the fluorescence of an indicator in the cells.

[1] abbreviates: allylisothiocyanate 20 μM stimulation, FLIPR calcium assay.
[2] abbreviates: 293T cells transfected with human TRPA1, allylisothiocyanate 20 μM, concentration for 50% inhibitory rate.

pIC50: −log10 of the molar value. Where two headings read alike, the source gives them in different places.

T1 sequence (O75762 whole entry): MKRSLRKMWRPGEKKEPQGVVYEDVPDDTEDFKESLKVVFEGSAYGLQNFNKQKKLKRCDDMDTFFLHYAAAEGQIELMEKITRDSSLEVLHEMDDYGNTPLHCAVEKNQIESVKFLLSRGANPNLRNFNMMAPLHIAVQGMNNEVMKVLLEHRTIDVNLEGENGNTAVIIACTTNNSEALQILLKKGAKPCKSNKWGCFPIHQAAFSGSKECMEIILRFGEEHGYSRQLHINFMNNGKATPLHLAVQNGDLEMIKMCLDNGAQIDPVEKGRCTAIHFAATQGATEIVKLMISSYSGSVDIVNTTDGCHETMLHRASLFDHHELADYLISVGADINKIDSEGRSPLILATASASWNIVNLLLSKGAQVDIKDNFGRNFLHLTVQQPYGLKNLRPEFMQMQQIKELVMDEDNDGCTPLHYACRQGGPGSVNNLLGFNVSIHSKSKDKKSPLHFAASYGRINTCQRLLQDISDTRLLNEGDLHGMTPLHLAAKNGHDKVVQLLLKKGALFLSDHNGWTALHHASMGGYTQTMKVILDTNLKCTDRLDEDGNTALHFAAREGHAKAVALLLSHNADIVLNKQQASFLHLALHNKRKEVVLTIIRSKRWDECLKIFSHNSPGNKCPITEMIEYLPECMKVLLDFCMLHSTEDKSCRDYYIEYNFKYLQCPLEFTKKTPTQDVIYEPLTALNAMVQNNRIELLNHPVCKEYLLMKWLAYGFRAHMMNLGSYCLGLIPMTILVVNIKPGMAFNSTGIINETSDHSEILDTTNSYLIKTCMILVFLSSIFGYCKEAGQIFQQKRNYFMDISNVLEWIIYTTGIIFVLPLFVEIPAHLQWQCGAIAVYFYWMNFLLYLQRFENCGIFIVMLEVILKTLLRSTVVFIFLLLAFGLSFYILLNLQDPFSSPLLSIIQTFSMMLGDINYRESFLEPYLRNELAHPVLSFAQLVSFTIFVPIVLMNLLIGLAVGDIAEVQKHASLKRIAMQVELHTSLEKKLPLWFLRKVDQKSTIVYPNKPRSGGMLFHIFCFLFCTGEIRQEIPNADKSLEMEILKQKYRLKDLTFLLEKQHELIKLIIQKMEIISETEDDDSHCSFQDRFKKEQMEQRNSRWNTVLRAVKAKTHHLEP

On to `CC(Oc1cccc(CNC(=O)[C@@H]2CCCN2S(=O)(=O)c2ccc(F)cc2)c1)c1ccccc1` (stereo in doubt) [Example 143, (2S)-1-(4-fluorophenyl)sulfonyl-N-[[3-[(1R)-1-phenylethoxy]phenyl]methyl]pyrrolidine-2-carboxamide], for which the pIC50 under setting [1] is 6.72.

As for `CC(Oc1cccc(CNC(=O)[C@@H]2CCCN2S(=O)(=O)c2ccc(F)cc2)c1)c1ccc(Cl)cc1` (stereo in doubt) [Example 145, (2S)-N-[[3-[(1R)-1-(4-chlorophenyl)ethoxy]phenyl]methyl]-1-(4-fluorophenyl)sulfonyl-pyrrolidine-2-carboxamide], under setting [1], the pIC50 is 7.19.

Regarding `O=C(NCc1cccc(Oc2ccc(C(F)(F)F)cc2)c1)[C@@H]1CC(F)CN1S(=O)(=O)c1ccc(F)cc1` (stereo in doubt) [Example 158, (2S,4R)-4-fluoro-1-(4-fluorophenyl)sulfonyl-N-[[3-[4-(trifluoromethyl)phenoxy]phenyl]methyl]pyrrolidine-2-carboxamide], the pIC50 under setting [1] is 6.55.

As for `O=C(NCc1ccc(Oc2ccccc2)cc1)[C@@H]1CCCN1S(=O)(=O)c1ccc(Cl)s1` [Example 1, (2S)-1-(5-chlorothiophene-2-sulfonyl)-N-[(4-phenoxyphenyl)methyl]pyrrolidine-2-carboxamide], the pIC50 under setting [2] was 6.66.

On to `O=C(NCc1ccc(Oc2ccc(C(F)(F)F)cc2)cc1)[C@@H]1CCCN1S(=O)(=O)c1ccc(Cl)s1` [Example 2], for which the pIC50 under setting [2] was 6.68.

As for `O=C(NCc1ccc(Oc2ccc(OC(F)(F)F)cc2)cc1)[C@@H]1CCCN1S(=O)(=O)c1ccc(Cl)s1` [Example 3], the pIC50 under setting [2] was 7.06.

Consider `O=C(NCc1ccc(Oc2ccc(Cl)cc2)cc1)[C@@H]1CCCN1S(=O)(=O)c1ccc(Cl)s1` [Example 4, (2S)-N-{[4-(4-chlorophenoxy)phenyl]methyl}-1-(5-chlorothiophene-2-sulfonyl)pyrrolidine-2-carboxamide], for which the pIC50 under setting [2] is 7.00.

Take `O=C(NCc1ccc(Oc2ccc(F)cc2)cc1)[C@@H]1CCCN1S(=O)(=O)c1ccc(Cl)s1` [Example 5, (2S)-1-(5-chlorothiophene-2-sulfonyl)-N-{[4-(4-fluorophenoxy)phenyl]methyl)pyrrolidine-2-carboxamide]: the pIC50 under setting [2] was 6.89.

For the molecule `O=C(NCc1ccc(Oc2cccc(C(F)(F)F)c2)cc1)[C@@H]1CCCN1S(=O)(=O)c1ccc(Cl)s1` [Example 6, (2S)-1-(5-chlorothiophene-2-sulfonyl)-N-({4-[3-(trifluoromethyl)phenoxy]phenyl}methyl)pyrrolidine-2-carboxamide], the pIC50 under setting [2] was 7.00.

On to `O=C(NCc1ccc(Oc2cccc(OC(F)(F)F)c2)cc1)[C@@H]1CCCN1S(=O)(=O)c1ccc(Cl)s1` [Example 7, (2S)-1-(5-chlorothiophene-2-sulfonyl)-N-({4-[3-(trifluoromethoxy)phenoxy]phenyl}methyl)pyrrolidine-2-carboxamide], for which, under setting [2], the pIC50 is 7.09.

Turning to `O=C(NCc1ccc(Oc2cccc(Cl)c2)cc1)[C@@H]1CCCN1S(=O)(=O)c1ccc(Cl)s1` [Example 8, (2S)-N-{[4-(3-chlorophenoxy)phenyl]methyl}-1-(5-chlorothiophene-2-sulfonyl)pyrrolidine-2-carboxamide], the pIC50 under setting [2] is 7.00.

In the case of `O=C(NCc1ccc(Oc2cccc(F)c2)cc1)[C@@H]1CCCN1S(=O)(=O)c1ccc(Cl)s1` [Example 9, (2S)-1-(5-chlorothiophene-2-sulfonyl)-N-{[4-(3-fluoro-phenoxy)phenyl]methyl}pyrrolidine-2-carboxamide], the pIC50 under setting [2] is 6.77.

In the case of `O=C(NCc1ccc(Oc2ccccc2C(F)(F)F)cc1)[C@@H]1CCCN1S(=O)(=O)c1ccc(Cl)s1` [Example 10, (2S)-1-(5-chlorothiophene-2-sulfonyl)-N-({4-[2-(trifluoro-methyl)phenoxy]phenyl}methyl)pyrrolidine-2-carboxamide], the pIC50 under setting [2] was 6.35.

As for `O=C(NCc1ccc(Oc2ccc(F)c(Cl)c2)cc1)[C@@H]1CCCN1S(=O)(=O)c1ccc(Cl)s1` [Example 11, (2S)-N-{[4-(3-chloro-4-fluoro-phenoxy)phenyl]methyl}-1-(5-chlorothiophene-2-sulfonyl)pyrrolidine-2-carboxamide], the pIC50 under setting [2] is 6.70.

Consider `O=C(NCc1ccc(Oc2ccnc(C(F)(F)F)c2)cc1)[C@@H]1CCCN1S(=O)(=O)c1ccc(Cl)s1` [Example 12, (2S)-1-(5-chlorothiophene-2-sulfonyl)-N-((4-{[2-(trifluoro-methyl)-4-pyridyl]oxy}phenyl)methyl)pyrrolidine-2-carboxamide], for which the pIC50 under setting [2] is 7.06.

As for `O=C(NCc1ccc(Oc2ccnc(Cl)c2)cc1)[C@@H]1CCCN1S(=O)(=O)c1ccc(Cl)s1` [Example 13, (2S)-N-({4-[(2-chloro-4-pyridyl)oxy]phenyl}methyl)-1-(5-chlorothiophene-2-sulfonyl)pyrrolidine-2-carboxamide], under setting [2], the pIC50 is 6.74.

`O=C(NCc1cccc(Oc2ccccc2)c1)[C@@H]1CCCN1S(=O)(=O)c1ccc(Cl)s1` [Example 14, (2S)-1-(5-chlorothiophene-2-sulfonyl)-N-[(3-phenoxyphenyl)methyl]pyrrolidine-2-carboxamide]: the pIC50 under setting [2] was 6.62.

`O=C(NCc1cccc(Oc2ccc(C(F)(F)F)cc2)c1)[C@@H]1CCCN1S(=O)(=O)c1ccc(Cl)s1` [Example 15, (2S)-1-(5-chlorothiophene-2-sulfonyl)-N-({3-[4-(trifluoro-methyl)phenoxy]phenyl}methyl)pyrrolidine-2-carboxamide]: the pIC50 under setting [2] was 7.82.

Take `O=C(NCc1cccc(Oc2ccc(OC(F)(F)F)cc2)c1)[C@@H]1CCCN1S(=O)(=O)c1ccc(Cl)s1` [Example 16, (2S)-1-(5-chlorothiophene-2-sulfonyl)-N-({3-[4-(trifluoro-methoxy)phenoxy]phenyl}methyl)pyrrolidine-2-carboxamide]: under setting [2], the pIC50 was 7.00.

Regarding `O=C(NCc1cccc(Oc2ccc(Cl)cc2)c1)[C@@H]1CCCN1S(=O)(=O)c1ccc(Cl)s1` [Example 17, (2S)-N-{[3-(4-chlorophenoxy)phenyl]methyl}-1-(5-chlorothiophene-2-sulfonyl)pyrrolidine-2-carboxamide], under setting [2], the pIC50 was 6.92.

As for `O=C(NCc1cccc(Oc2ccc(F)cc2)c1)[C@@H]1CCCN1S(=O)(=O)c1ccc(Cl)s1` [Example 18, (2S)-1-(5-chlorothiophene-2-sulfonyl)-N-{[3-(4-fluoro-phenoxy)phenyl]methyl}pyrrolidine-2-carboxamide], the pIC50 under setting [2] is 6.89.

With `O=C(NCc1cccc(Oc2cccc(C(F)(F)F)c2)c1)[C@@H]1CCCN1S(=O)(=O)c1ccc(Cl)s1` [Example 19, (2S)-1-(5-chlorothiophine-2-sulfonyl)-N-({3-[3-(trifluoro-methyl)phenoxy]phenyl}methyl)pyrrolidine-2-carboxamide], the pIC50 under setting [2] is 7.10.

As to `O=C(NCc1cccc(Oc2cccc(OC(F)(F)F)c2)c1)[C@@H]1CCCN1S(=O)(=O)c1ccc(Cl)s1` [Example 20, (2S)-1-(5-chlorothiophene-2-sulfonyl)-N-({3-[3-(trifluoro-methoxy)phenoxy]phenyl}methyl)pyrrolidine-2-carboxamide], under setting [2], the pIC50 is 7.15.

Take `O=C(NCc1cccc(Oc2cccc(Cl)c2)c1)[C@@H]1CCCN1S(=O)(=O)c1ccc(Cl)s1` [Example 21, (2S)-N-{[3-(3-chlorophenoxy)phenyl]methyl}-1-(5-chloro-thiophene-2-sulfonyl)pyrrolidine-2-carboxamide]: under setting [2], the pIC50 is 7.35.

Take `O=C(NCc1cccc(Oc2cccc(F)c2)c1)[C@@H]1CCCN1S(=O)(=O)c1ccc(Cl)s1` [Example 22, (2S)-1-(5-chlorothiophene-2-sulfonyl)-N-{[3-(3-fluoro-phenoxy)phenyl]methyl}pyrrolidine-2-carboxamide]: under setting [2], the pIC50 is 7.25.
